In ChEMBL document CHEMBL1201862, “PubChem BioAssay data set” (2004):
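Briefly, cells in 96-well plates were exposed to five compound concentrations for 48 h, and endpoints were estimated by linear interpolation. GI50 = concentration required for 50% inhibition of growth.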 Calls of active or inactive are those of the source. No stated cut-off is given here; in the data, active = GI50 up to about 1.1 µM and inactive = higher.

What was measured:
Assay in all cases: inhibition of tumour cell growth, NCI panel, 48 h
NCI-H23 = system: NCI-H23
HCT-15 = system: HCT-15
EKVX = system: EKVX
HL-60 = system: HL-60
PC-3 = system: PC-3
MOLT-4 = system: MOLT-4
SNB-19 = system: SNB-19
U-251 = system: U-251
SW-620 = system: SW-620
HCC 2998 = system: HCC 2998
UACC-257 = system: UACC-257
BT-549 = system: BT-549
SF-295 = system: SF-295
T47D = system: T47D
CAKI-1 = system: CAKI-1
HOP-62 = system: HOP-62
MCF7 = system: MCF7
SK-OV-3 = system: SK-OV-3
RXF 393 = system: RXF 393
SF-539 = system: SF-539
TK-10 = system: TK-10
UO-31 = system: UO-31
HOP-92 = system: HOP-92
NCI-H226 = system: NCI-H226
SK-MEL-2 = system: SK-MEL-2
K562 = system: K562
HCT-116 = system: HCT-116
CCRF-CEM = system: CCRF-CEM
SF-268 = system: SF-268
COLO 205 = system: COLO 205
Hs-578T = system: Hs-578T
RPMI-8226 = system: RPMI-8226
OVCAR-8 = system: OVCAR-8
OVCAR-4 = system: OVCAR-4
ACHN = system: ACHN
HT-29 = system: HT-29
IGROV-1 = system: IGROV-1
MDA-MB-435 = system: MDA-MB-435
SNB-75 = system: SNB-75
NCI-H522 = system: NCI-H522
MDA-N = system: MDA-N
NCI/ADR-RES = system: NCI/ADR-RES
SK-MEL-5 = system: SK-MEL-5
NCI-H460 = system: NCI-H460
OVCAR-5 = system: OVCAR-5
LOX IMVI = system: LOX IMVI
OVCAR-3 = system: OVCAR-3
DU-145 = system: DU-145
MDA-MB-231 = system: MDA-MB-231
A549 = system: A549
M14 = system: M14
KM12 = system: KM12
UACC-62 = system: UACC-62
SN12C = system: SN12C
786-0 = system: 786-0
A498 = system: A498
Malme-3M = system: Malme-3M
SK-MEL-28 = system: SK-MEL-28

Cc1nc(C)c(C(=O)NNC(=O)c2ccccc2)cc1C(=O)NNC(=O)c1ccccc1
GI50 (NCI-H23): > 100 µM (inactive)
GI50 (HCT-15): > 100 µM
GI50 (EKVX): > 10 µM (inactive)
GI50 (HL-60): > 100 µM (inactive)
GI50 (PC-3): > 100 µM (inactive)
GI50 (MOLT-4): > 100 µM (inactive)
GI50 (SNB-19): > 100 µM (inactive)
GI50 (U-251): > 100 µM (inactive)
GI50 (SW-620): > 100 µM (inactive)
GI50 (HCC 2998): > 100 µM (inactive)
GI50 (UACC-257): > 100 µM (inactive)
GI50 (BT-549): > 100 µM (inactive)
GI50 (SF-295): > 100 µM (inactive)
GI50 (T47D): > 100 µM (inactive)
GI50 (CAKI-1): > 100 µM (inactive)
GI50 (HOP-62): > 100 µM (inactive)
GI50 (MCF7): > 100 µM (inactive)
GI50 (SK-OV-3): > 100 µM (inactive)
GI50 (RXF 393): > 100 µM (inactive)
GI50 (SF-539): > 100 µM (inactive)
GI50 (TK-10): > 100 µM (inactive)
GI50 (UO-31): > 100 µM (inactive)
GI50 (HOP-92): > 100 µM (inactive)
GI50 (NCI-H226): > 100 µM (inactive)
GI50 (SK-MEL-2): > 100 µM (inactive)
GI50 (K562): > 100 µM (inactive)
GI50 (HCT-116): > 100 µM (inactive)
GI50 (CCRF-CEM): > 100 µM (inactive)
GI50 (SF-268): > 100 µM (inactive)
GI50 (COLO 205): > 100 µM (inactive)
GI50 (Hs-578T): > 100 µM (inactive)
GI50 (RPMI-8226): > 100 µM (inactive)
GI50 (OVCAR-8): > 100 µM (inactive)
GI50 (OVCAR-4): > 100 µM (inactive)
GI50 (ACHN): > 100 µM (inactive)
GI50 (HT-29): > 100 µM (inactive)
GI50 (IGROV-1): > 10 µM (inactive)
GI50 (MDA-MB-435): > 100 µM (inactive)
GI50 (SNB-75): > 10 µM (inactive)
GI50 (NCI-H522): > 100 µM (inactive)
GI50 (MDA-N): > 100 µM (inactive)
GI50 (NCI/ADR-RES): > 100 µM (inactive)
GI50 (SK-MEL-5): > 100 µM (inactive)
GI50 (NCI-H460): > 100 µM (inactive)
GI50 (OVCAR-5): > 100 µM (inactive)
GI50 (LOX IMVI): > 100 µM (inactive)
GI50 (OVCAR-3): > 100 µM (inactive)
GI50 (DU-145): > 100 µM (inactive)
GI50 (MDA-MB-231): > 100 µM (inactive)
GI50 (A549): > 100 µM (inactive)
GI50 (M14): > 100 µM (inactive)
GI50 (KM12): > 10 µM (inactive)
GI50 (UACC-62): > 100 µM (inactive)
GI50 (SN12C): > 100 µM (inactive)
GI50 (786-0): > 100 µM (inactive)
GI50 (A498): > 100 µM (inactive)

CCOC(=O)C1(C/C=C\CBr)CCCCCCCCCCC1=O (configuration not stated)
GI50 (NCI-H23): 11.9 µM (inactive)
GI50 (HCT-15): 16.7 µM
GI50 (EKVX): 14.9 µM (inactive)
GI50 (PC-3): 10.4 µM (inactive)
GI50 (MOLT-4): 3.56 µM (inactive)
GI50 (SNB-19): 14.3 µM (inactive)
GI50 (U-251): 7.01 µM (inactive)
GI50 (SW-620): 13.5 µM (inactive)
GI50 (HCC 2998): 16 µM (inactive)
GI50 (UACC-257): 15.2 µM (inactive)
GI50 (BT-549): 15.3 µM (inactive)
GI50 (SF-295): 16.9 µM (inactive)
GI50 (T47D): 12.1 µM (inactive)
GI50 (CAKI-1): 13.9 µM (inactive)
GI50 (HOP-62): 18.2 µM (inactive)
GI50 (MCF7): 12.9 µM (inactive)
GI50 (SK-OV-3): 16.8 µM (inactive)
GI50 (RXF 393): 11.2 µM (inactive)
GI50 (SF-539): 3.43 µM (inactive)
GI50 (TK-10): 8.69 µM (inactive)
GI50 (UO-31): 2.9 µM (inactive)
GI50 (NCI-H226): 2.88 µM (inactive)
GI50 (SK-MEL-2): 15.3 µM (inactive)
GI50 (K562): 3.95 µM (inactive)
GI50 (HCT-116): 17 µM (inactive)
GI50 (CCRF-CEM): 5.69 µM (inactive)
GI50 (SF-268): 11 µM (inactive)
GI50 (COLO 205): 17.5 µM (inactive)
GI50 (Hs-578T): 20 µM (inactive)
GI50 (RPMI-8226): 2.81 µM (inactive)
GI50 (OVCAR-8): 14.5 µM (inactive)
GI50 (Malme-3M): 8.22 µM (inactive)
GI50 (OVCAR-4): 10.6 µM (inactive)
GI50 (ACHN): 15.6 µM (inactive)
GI50 (HT-29): 4.38 µM (inactive)
GI50 (IGROV-1): 2.94 µM (inactive)
GI50 (MDA-MB-435): 12 µM (inactive)
GI50 (SNB-75): 12.4 µM (inactive)
GI50 (NCI-H522): 0.497 µM (active)
GI50 (MDA-N): 11.9 µM (inactive)
GI50 (NCI/ADR-RES): 16.7 µM (inactive)
GI50 (SK-MEL-5): 12.8 µM (inactive)
GI50 (NCI-H460): 15.5 µM (inactive)
GI50 (OVCAR-5): 16.2 µM (inactive)
GI50 (LOX IMVI): 0.428 µM (active)
GI50 (OVCAR-3): 2.09 µM (inactive)
GI50 (DU-145): 17.1 µM (inactive)
GI50 (MDA-MB-231): 3.36 µM (inactive)
GI50 (A549): 18 µM (inactive)
GI50 (M14): 15.7 µM (inactive)
GI50 (KM12): 13.2 µM (inactive)
GI50 (SK-MEL-28): 15.7 µM (inactive)
GI50 (UACC-62): 11.5 µM (inactive)
GI50 (SN12C): 12.6 µM (inactive)
GI50 (786-0): 6.34 µM (inactive)
GI50 (A498): 13.9 µM (inactive)
